Data reported in patent publication US20250282757A1, “ARYL ETHER-SUBSTITUTED HETEROCYCLIC COMPOUNDS AS GLP1R AGONISTS” (MINDRANK AI LTD., priority 2021, published 2025).

Biological target: GLP-1R (Homo sapiens, UniProt P43220)
Assay: Agonist activity on GLP-1R, HTRF cAMP detection in stably transfected GLP-1R/HEK293 cells
Type: cell-based
Details: for EC50: 30 min incubation; for Max activity: relative to top concentration of reference GLP-1(7-37)
Protocol: Detection of Agonist Activity of the Test Compounds on GLP-1R
• 1) The test compound was dissolved in DMSO and diluted 4-fold with Bravo for a total of 10 concentration gradients (the starting concentration was 1 mM). […] HBSS (10 mL) pre-warmed at 37° C. was added, mixed gently, and centrifuged at 1000 rpm for 5 minutes. The supernatant was discarded and another 10 mL of […] was added and mixed gently. […] The plate was shaken to mix at 2000 rpm for 60 seconds. • 7) The cells in the 384-well plate were incubated in CO2 cell incubator at 37° C. for 30 min. • 8) 10 μL of HTRF cAMP detection solution was added to the 384-well plate, stick with sealing film, and incubated at room temperature for 1 hour. • 9) After 1 hour of incubation, the sealing film was removed. The plate was put into the EnVision microplate reader to read the values of OD665 nm and OD615 nm.

Chain of GLP-1R (P43220 24-463): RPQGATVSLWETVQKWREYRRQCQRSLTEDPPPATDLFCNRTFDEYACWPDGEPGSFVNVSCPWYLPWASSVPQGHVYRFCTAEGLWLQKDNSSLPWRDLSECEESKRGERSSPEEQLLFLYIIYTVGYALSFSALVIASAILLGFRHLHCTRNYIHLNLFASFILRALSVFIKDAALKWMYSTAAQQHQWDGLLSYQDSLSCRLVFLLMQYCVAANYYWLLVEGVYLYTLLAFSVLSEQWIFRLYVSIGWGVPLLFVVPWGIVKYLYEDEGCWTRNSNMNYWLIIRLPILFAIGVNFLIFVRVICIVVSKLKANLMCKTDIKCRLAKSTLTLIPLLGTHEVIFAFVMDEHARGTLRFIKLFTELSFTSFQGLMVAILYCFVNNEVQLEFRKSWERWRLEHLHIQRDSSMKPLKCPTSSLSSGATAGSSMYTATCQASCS

EC50 [nM]	Max activity [%]	SMILES
0.088	116.8	CCn1cncc1Cn1c(CN2CCC(Oc3cccc(COc4ccc(C#N)cc4F)n3)CC2)nc2ccc(C(=O)O)cc21 [Compound 1, 2-((4-((6-((4-cyano-2-fluorophenoxy)methyl)pyridin-2-yl)oxy)piperidin-1-yl)methyl)-1-((1-ethyl-1H-imidazol-5-yl)methyl)-1H-benzo[d]imidazole-6-carboxylic acid]
0.0529	98.6	CCn1cncc1Cn1c(CN2CCC(Oc3cccc(COc4ccc(C#N)cc4F)n3)CC2)nc2c(F)cc(C(=O)O)cc21 [Compound 2, 2-((4-((6-((4-cyano-2-fluorophenoxy)methyl)pyridin-2-yl)oxy)piperidin-1-yl)methyl)-1-((1-ethyl-1H-imidazol-5-yl)methyl)-4-fluoro-1H-benzo[d]imidazole-6-carboxylic acid]
0.317	128.3	CCn1cncc1Cn1c(CN2CCC(Oc3ccc(F)c(COc4ccc(C#N)cc4F)n3)CC2)nc2ccc(C(=O)O)cc21 [Compound 3, 2-((4-((6-((4-cyano-2-fluorophenoxy)methyl)-5-fluoropyridin-2-yl)oxy)piperidin-1-yl)methyl)-1-((1-ethyl-1H-imidazol-5-yl)methyl)-1H benzo[d]imidazole-6-carboxylic acid]
0.133	114.8	CCn1cncc1Cn1c(CN2CCC(Oc3cccc(COc4ccc(C#N)cc4F)n3)CC2)nc2ccc(C(=O)O)nc21 [Compound 6, 2-((4-((6-((4-cyano-2-fluorophenoxy)methyl)pyridin-2-yl)oxy)piperidin-1-yl)methyl)-3-((1-ethyl-1H-imidazol-5-yl)methyl)-3H-imidazo[4,5-b]pyridine-5-carboxylic acid]
0.145	91.3	CCn1cncc1Cn1c(CN2CCC(Oc3cccc(COc4ccc(Cl)cc4F)c3)CC2)nc2ccc(C(=O)O)cc21 [Compound 7, 2-((4-(3-((4-chloro-2-fluorophenoxy)methyl)phenoxy)piperidin-1-yl)methyl)-1-((1-ethyl-1H-imidazol-5-yl)methyl)-1H-benzo[d]imidazole-6-carboxylic acid]
0.114	99.4	CCn1cncc1Cn1c(CN2CCC(Oc3cccc(COc4ccc(C#N)cc4F)c3)CC2)nc2ccc(C(=O)O)cc21 [Compound 13, 2-((4-(3-((4-cyano-2-fluorophenoxy)methyl)phenoxy)piperidin-1-yl)methyl)-1-((1-ethyl-1H-imidazol-5-yl)methyl)-1H-benzo[d]imidazole-6-carboxylic acid]
0.11	109.7	CCn1cncc1Cn1c(CN2CCC(Oc3cccc(COc4ccc(Cl)cc4F)n3)CC2)nc2ccc(C(=O)O)cc21 [Compound 43, 2-((4-((6-((4-chloro-2-fluorophenoxy)methyl)pyridin-2-yl)oxy)piperidin-1-yl)methyl)-1-((1-ethyl-1H-imidazol-5-yl)methyl)-1H-benzo[d]imidazole-6-carboxylic acid]
0.455	112.0	N#Cc1ccc(OCc2cccc(OC3CCN(Cc4nc5ccc(C(=O)O)nc5n4C[C@@H]4CCO4)CC3)n2)c(F)c1 [Compound 60, (S)-2-((4-((6-((4-cyano-2-fluorophenoxy)methyl)pyridin-2-yl)oxy)piperidin-1-yl)methyl)-3-(oxetan-2-ylmethyl)-3H-imidazo[4,5-b]pyridine-5-carboxylic acid]
1.09	106.4	N#Cc1ccc(OCc2cccc(OC3CCN(Cc4nc5ccc(C(=O)O)cc5n4C[C@@H]4CCO4)CC3)c2)c(F)c1 [Compound 67, (S)-2-((4-(3-((4-cyano-2-fluorophenoxy)methyl)phenoxy)piperidin-1-yl)methyl)-1-(oxetan-2-ylmethyl)-1H-benzo[d]imidazole-6-carboxylic acid]
0.264	126.6	N#CCC1(Cn2c(CN3CCC(Oc4cccc(COc5ccc(C#N)cc5F)n4)CC3)nc3ccc(C(=O)O)cc32)CC1 [Compound 133, 2-((4-((6-((4-cyano-2-fluorophenoxy)methyl)pyridin-2-yl)oxy)piperidin-1-yl)methyl)-1-((1-(cyanomethyl)cyclopropyl)methyl)-1H-benzo[d]imidazole-6-carboxylic acid]
0.133	117.3	N#CCC1(Cn2c(CN3CCC(Oc4cccc(COc5ccc(C#N)cc5F)n4)CC3)nc3c(F)cc(C(=O)O)cc32)CC1 [Compound 134, 2-((4-((6-((4-cyano-2-fluorophenoxy)methyl)pyridin-2-yl)oxy)piperidin-1-yl)methyl)-1-((1-(cyanomethyl)cyclopropyl)methyl)-4-fluoro-1H-benzimidazole-6-carboxylic acid]
0.244	109.6	N#CCC1(Cn2c(CN3CCC(Oc4ccc(F)c(COc5ccc(C#N)cc5F)n4)CC3)nc3ccc(C(=O)O)cc32)CC1 [Compound 135, 2-((4-((6-((4-cyano-2-fluorophenoxy)methyl)-5-fluoropyridin-2-yl)oxy)piperidin-1-yl)methyl)-1-((1-(cyanomethyl)cyclopropyl)methyl)-1H-benzo[d]imidazole-6-carboxylic acid]
0.669	125.0	N#CCC1(Cn2c(CN3CCC(Oc4cccc(COc5ccc(C#N)cc5F)n4)CC3)nc3ccc(C(=O)O)nc32)CC1 [Compound 138, 2-((4-((6-((4-cyano-2-fluorophenoxy)methyl)pyridin-2-yl)oxy)piperidin-1-yl)methyl)-3-((1-(cyanomethyl)cyclopropyl)methyl)-3H-imidazo[4,5-b]pyridine-5-carboxylic acid]
1190	76.6	N#Cc1ccc(OCc2cccc(COC3CCN(Cc4nc5ccc(C(=O)O)cc5n4C[C@@H]4CCO4)CC3)n2)c(F)c1 [Compound C1, (S)-2-((4-((6-((4-cyano-2-fluorophenoxy)methyl)pyridin-2-yl)methoxy)piperidin-1-yl)methyl)-1-(oxetan-2-ylmethyl)-1H-benzo[d]imidazole-6-carboxylic acid]
0.614	123.1	CCn1cncc1Cn1c(CN2CCC(Oc3cccc(OCc4ccc(C#N)cc4F)n3)CC2)nc2ccc(/C=C/C(=O)O)cc21 [Compound C2, (E)-3-(2-((4-((6-((4-cyano-2-fluorobenzyl)oxy)pyridin-2-yl)oxy)piperidin-1-yl)methyl)-1-((1-ethyl-1H-imidazol-5-yl)methyl)-1H-benzo[d]imidazol-6-yl)acrylic acid]
0.278	122.3	CCn1cncc1Cn1c(CN2CCC(Oc3cccc(COc4ccc(Br)cc4F)n3)CC2)nc2ccc(C(=O)O)cc21 [Compound C3, 2-((4-((6-((4-bromo-2-fluorophenoxy)methyl)pyridin-2-yl)oxy)piperidin-1-yl)methyl)-1-((1-ethyl-1H-imidazol-5-yl)methyl)-1H-benzo[d]imidazole-6-carboxylic acid]
0.56	147.9	O=C(O)c1ccc2nc(CN3CCC(Oc4cccc(COc5ccc(Br)cc5F)n4)CC3)n(C[C@@H]3CCO3)c2c1 [Compound C4, (S)-2-((4-((6-((4-bromo-2-fluorophenoxy)methyl)pyridin-2-yl)oxy)piperidin-1-yl)methyl)-1-(oxetan-2-ylmethyl)-1H-benzo[d]imidazole-6-carboxylic acid]
2.41	112.6	CC1(Cn2c(CN3CCC(Oc4cccc(COc5ccc(C#N)cc5F)n4)CC3)nc3ccc(C(=O)O)cc32)COC1 [Compound C5, 2-((4-((6-((4-cyano-2-fluorophenoxy)methyl)pyridin-2-yl)oxy)piperidin-1-yl)methyl)-1-((3-methyloxetan-3-yl)methyl)-1H-benzo[d]imidazole-6-carboxylic acid]
13.8	99.8	Cc1ncc(Cn2c(CN3CCC(Oc4cccc(COc5ccc(C#N)cc5F)n4)CC3)nc3ccc(C(=O)O)cc32)n1C [Compound C6, 2-((4-((6-((4-cyano-2-fluorophenoxy)methyl)pyridin-2-yl)oxy)piperidin-1-yl)methyl)-1-((1,2-dimethyl-1H-imidazol-5-yl)methyl)-1H-benzo[d]imidazole-6-carboxylic acid]
23.5	90.1	N#CCC1(Cn2c(CN3CCC(Oc4cccc(CSc5ccc(Cl)cc5F)n4)CC3)nc3ccc(C(=O)O)cc32)CC1 [Compound C7, 2-((4-((6-((4-chloro-2-fluorophenylthio)methyl)pyridin-2-yl)oxy)piperidin-1-yl)methyl)-1-((1-(cyanomethyl)cyclopropyl)methyl)-1H-benzo[d]imidazole-6-carboxylic acid]
25.6	117.4	O=C(O)c1ccc2nc(CN3CCC(Oc4cccc(CSc5ccc(Cl)cc5F)n4)CC3)n(C[C@@H]3CCO3)c2c1 [Compound C8]
3.74	97.2	CCn1cncc1Cn1c(CN2CCC(Oc3cccc(CSc4ccc(Cl)cc4F)n3)CC2)nc2ccc(C(=O)O)cc21 [Compound C9]
4.16	110.2	N#Cc1ccc(SCc2cccc(OC3CCN(Cc4nc5ccc(C(=O)O)cc5n4C[C@@H]4CCO4)CC3)n2)c(F)c1 [Compound C10, (S)-2-((4-((6-((4-cyano-2-fluorophenylthio)methyl)pyridin-2-yl)oxy)piperidin-1-yl)methyl)-1-(oxetan-2-ylmethyl)-1H-benzo[d]imidazole-6-carboxylic acid]
